In ChEMBL document CHEMBL3232998, “Spiromastixones A-O, antibacterial chlorodepsidones from a deep-sea-derived Spiromastix sp. fungus” (J Nat Prod, 2014):
≈ marks a conversion by molar mass, not a printed value.

Legend:
Staphylococcus aureus [1] = experiment: Antibacterial activity against methicillin-sensitive Staphylococcus aureus ATCC 29213 after 18 hrs by broth microdilution method; format: functional, organism-based; settings: ATCC 29213, 18 h, read-out: IC50
Staphylococcus aureus [2] = experiment: Antibacterial activity against methicillin-resistant Staphylococcus aureus ATCC 33591 after 18 hrs by broth microdilution method; format: functional, organism-based; settings: ATCC 33591, 18 h, read-out: IC50
Staphylococcus aureus [3] = experiment: Ratio of levofloxacin IC50 to compound IC50 for methicillin-resistant Staphylococcus aureus 12-33 after 18 hrs by broth microdilution method; format: functional
Enterococcus faecalis [4] = experiment: Antibacterial activity against vancomycin-sensitive Enterococcus faecalis 12-5 after 18 hrs by broth microdilution method; format: functional, organism-based; settings: 12-5, 18 h, read-out: IC50
Escherichia coli [5] = experiment: Antibacterial activity against extended spectrum beta-lactamase-deficient Escherichia coli 12-14 after 18 hrs by broth microdilution method; format: functional, organism-based; settings: 12-14, 18 h, read-out: IC50
Klebsiella pneumoniae [6] = experiment: Antibacterial activity against extended spectrum beta-lactamase producing Klebsiella pneumoniae ATCC 700603 after 18 hrs by broth microdilution method; format: functional, organism-based; settings: ATCC 700603, 18 h
Staphylococcus aureus [7] = experiment: Antibacterial activity against methicillin-resistant Staphylococcus aureus 12-33 after 18 hrs by broth microdilution method; format: functional, organism-based; settings: 12-33, 18 h, read-out: IC50
Enterococcus faecalis [8] = experiment: Antibacterial activity against vancomycin-sensitive Enterococcus faecalis ATCC 29212 after 18 hrs by broth microdilution method; format: functional, organism-based; settings: ATCC 29212, 18 h, read-out: IC50
Escherichia coli [9] = experiment: Antibacterial activity against extended spectrum beta-lactamase-deficient Escherichia coli ATCC 25922 after 18 hrs by broth microdilution method; format: functional, organism-based; settings: ATCC 25922, 18 h, read-out: IC50
Klebsiella pneumoniae [10] = experiment: Antibacterial activity against extended spectrum beta-lactamase-deficient Klebsiella pneumoniae 7 after 18 hrs by broth microdilution method; format: functional, organism-based; settings: Klebsiella pneumoniae, 7, 18 h; read-out: IC50
Staphylococcus aureus [11] = experiment: Antibacterial activity against Staphylococcus aureus ATCC 29213 after 18 hrs by broth microdilution method; format: functional; settings: ATCC 29213, 18 h
Klebsiella pneumoniae [12] = experiment: Antibacterial activity against extended spectrum beta-lactamase producing Klebsiella pneumoniae 12-8 after 18 hrs by broth microdilution method; format: functional, organism-based; settings: 12-8, 18 h, read-out: IC50
[13] = system: Staphylococcus epidermidis; experiment: Antibacterial activity against methicillin-sensitive Staphylococcus epidermidis ATCC 12228 after 18 hrs by broth microdilution method; format: functional, organism-based; settings: ATCC 12228, 18 h, read-out: IC50
Bacillus subtilis = experiment: Antibacterial activity against Bacillus subtilis SCSIO BS01 after 18 hrs by broth microdilution method; format: functional; settings: SCSIO BS01, 18 h
Enterococcus faecium [14] = experiment: Antibacterial activity against vancomycin-sensitive Enterococcus faecium 12-3 after 18 hrs by broth microdilution method; format: functional, organism-based; settings: 12-3, 18 h, read-out: IC50
[15] = system: Staphylococcus epidermidis; experiment: Antibacterial activity against methicillin-sensitive Staphylococcus epidermidis 12-6 after 18 hrs by broth microdilution method; format: functional, organism-based; settings: 12-6, 18 h
Enterococcus faecalis [16] = experiment: Antibacterial activity against vancomycin-resistant Enterococcus faecalis ATCC 51299 after 18 hrs by broth microdilution method; format: functional, organism-based; settings: ATCC 51299, 18 h, read-out: IC50
Staphylococcus aureus [17] = experiment: Antibacterial activity against methicillin-sensitive Staphylococcus aureus 15 after 18 hrs by broth microdilution method; format: functional, organism-based; settings: Staphylococcus aureus, 15, 18 h; read-out: IC50
Enterococcus faecium [18] = experiment: Antibacterial activity against vancomycin-resistant Enterococcus faecium ATCC 700221 after 18 hrs by broth microdilution method; format: functional, organism-based; settings: ATCC 700221, 18 h, read-out: IC50
[19] = system: Staphylococcus epidermidis; experiment: Antibacterial activity against methicillin-resistant Staphylococcus epidermidis 12-8 after 18 hrs by broth microdilution method; format: functional, organism-based; settings: 12-8, 18 h, read-out: IC50
Escherichia coli [20] = experiment: Antibacterial activity against extended spectrum beta-lactamase-deficient Escherichia coli 1515 after 18 hrs by broth microdilution method; format: functional, organism-based; settings: Escherichia coli, 1515, 18 h
Klebsiella pneumoniae [21] = experiment: Antibacterial activity against NDM-1 producing Klebsiella pneumoniae ATCC BAA-2146 after 18 hrs by broth microdilution method; format: functional, organism-based; settings: ATCC BAA-2146, 18 h, read-out: IC50
Enterococcus faecalis [22] = experiment: Antibacterial activity against vancomycin-resistant Enterococcus faecalis 09-9 after 18 hrs by broth microdilution method; format: functional, organism-based; settings: 09-9, 18 h, read-out: IC50
Staphylococcus aureus [23] = experiment: Antibacterial activity against methicillin-sensitive Staphylococcus aureus 12-28 after 18 hrs by broth microdilution method; format: functional, organism-based; settings: 12-28, 18 h
Bacillus thuringiensis = experiment: Antibacterial activity against Bacillus thuringiensis SCSIO BT01 after 18 hrs by broth microdilution method; format: functional; settings: SCSIO BT01, 18 h
Enterococcus faecium [24] = experiment: Antibacterial activity against vancomycin-resistant Enterococcus faecium 12-1 after 18 hrs by broth microdilution method; format: functional, organism-based; settings: 12-1, 18 h, read-out: IC50
Escherichia coli [25] = experiment: Antibacterial activity against extended spectrum beta-lactamase producing Escherichia coli 12-15 after 18 hrs by broth microdilution method; format: functional, organism-based; settings: 12-15, 18 h, read-out: IC50
Klebsiella pneumoniae [26] = experiment: Antibacterial activity against extended spectrum beta-lactamase-deficient Klebsiella pneumoniae 12-4 after 18 hrs by broth microdilution method; format: functional, organism-based; settings: 12-4, 18 h
Escherichia coli [27] = experiment: Antibacterial activity against Escherichia coli ATCC 25922 after 18 hrs by broth microdilution method; format: functional; settings: ATCC 25922, 18 h

CCCc1c(Cl)c(OC)c(Cl)c2c1Oc1c(Cl)c(O)c(Cl)c(CCC)c1C(=O)O2
MIC (Staphylococcus aureus [1]): 4 µM (≈ 1.92 µg/mL) | MIC (Staphylococcus aureus [2]): 2 µM (≈ 0.96 µg/mL) | Ratio IC50 (Staphylococcus aureus [3]): 2 | MIC (Enterococcus faecalis [4]): 4 µM (≈ 1.92 µg/mL) | MIC (Escherichia coli [5]): > 256 µM | IC50 (Klebsiella pneumoniae [6]): > 256 µM | MIC (Staphylococcus aureus [7]): 4 µM (≈ 1.92 µg/mL) | MIC (Enterococcus faecalis [8]): 4 µM (≈ 1.92 µg/mL) | MIC (Escherichia coli [9]): > 256 µM | MIC (Klebsiella pneumoniae [10]): > 256 µM | MIC (Staphylococcus aureus [11]): 0.125 µg/mL (≈ 0.26 µM) | MIC (Klebsiella pneumoniae [12]): > 256 µM | MIC [13]: 4 µM (≈ 1.92 µg/mL) | MIC (Bacillus subtilis): 0.125 µg/mL (≈ 0.26 µM) | MIC (Enterococcus faecium [14]): 4 µM (≈ 1.92 µg/mL) | IC50 [15]: 2 µM | MIC (Enterococcus faecalis [16]): 4 µM (≈ 1.92 µg/mL) | MIC (Staphylococcus aureus [17]): 2 µM (≈ 0.96 µg/mL) | MIC (Enterococcus faecium [18]): 4 µM (≈ 1.92 µg/mL) | MIC [19]: 1 µM (≈ 0.48 µg/mL) | IC50 (Escherichia coli [20]): > 256 µM | MIC (Klebsiella pneumoniae [21]): > 256 µM | MIC (Enterococcus faecalis [22]): 4 µM (≈ 1.92 µg/mL) | IC50 (Staphylococcus aureus [23]): 4 µM | MIC (Bacillus thuringiensis): 0.25 µg/mL (≈ 0.521 µM) | MIC (Enterococcus faecium [24]): 4 µM (≈ 1.92 µg/mL) | MIC (Escherichia coli [25]): > 256 µM | IC50 (Klebsiella pneumoniae [26]): > 256 µM | MIC (Escherichia coli [27]): > 128 µg/mL
